According to ChEMBL document CHEMBL4725395, “Lipoic acid modified antimicrobial peptide with enhanced antimicrobial properties” (Bioorg Med Chem, 2020):
Values after ≈ are worked out from the molar mass of the structure shown. Active and inactive are the calls of the source. The calls are words filed in the database; no cut-off is given here. Residues, ends and D or L forms follow the SMILES beside them. ξ: configuration not given here. *: point of attachment. Lipoyl(6ξ) = O=C(CCCCC1CCSS1)*

Legend:
[1] = Cytotoxicity against mouse L929 cells assessed as cell viability at 32 ug/ml after 24 hrs by MTT assay relative to control; assay type: cell-based; settings: at 32 µg/mL, read-out: Activity
[2] = system: Staphylococcus epidermidis; assay: Antimicrobial activity against Staphylococcus epidermidis ATCC 14990 by measuring turbidity after 16 hrs; assay type: functional
[3] = Hemolytic activity against Erythrocyte (unknown origin) at 4 ug/ml measured after 4 hrs by microplate reader analysis relative to control; assay type: ADME, cell-based; settings: human, erythrocytes, at 4 µg/mL, read-out: Activity
Staphylococcus aureus [4] = assay: Antimicrobial activity against Staphylococcus aureus ATCC 29213 assessed as inhibition of visible growth incubated for 24 hrs; assay type: functional
[5] = Cytotoxicity against mouse L929 cells assessed as cell viability at 128 ug/ml after 24 hrs by MTT assay relative to control; assay type: cell-based; settings: at 128 µg/mL, read-out: Activity
Staphylococcus aureus [6] = assay: Antibiofilm activity against 48 hrs preformed biofilm of methicillin resistant Staphylococcus aureus ATCC 43300 assessed as reduction in biofilm viability at 128 ug/ml after 5 hrs relative to control; assay type: functional; settings: dose 128 µg/ml
Staphylococcus aureus [7] = assay: Antibiofilm activity against Staphylococcus aureus ATCC 29213 assessed as dead bacteria at 64 ug/ml incubated for 5 hrs by live/dead staining based confocal laser scanning microscopy; assay type: functional, organism-based; settings: dose 64.0 µg/ml
Cell membrane [8] = assay: Induction of outer membrane permeabilization in Escherichia coli ATCC 25922 assessed as increase in fluorescence intensity at 4 ug/ml after 100 sec by NPN-dye based assay; assay type: subcellular; settings: dose 4.0 µg/ml
Staphylococcus aureus [9] = assay: Antimicrobial activity against methicillin-resistant Staphylococcus aureus ATCC 43300 by measuring turbidity after 16 hrs; assay type: functional
Staphylococcus aureus [10] = assay: Bactericidal activity against planktonic phase of methicillin-resistant Staphylococcus aureus ATCC 43300 assessed as log reduction in bacterial colony forming units at 8 ug/ml incubated for 15 mins followed by plating on agar plate and measured after overnight incubation by time-kill kinetic assay relative to control; assay type: functional; set-up: scale not given: the % may be the effect or the level left; settings: dose 8 µg/ml, 0.25 h
Staphylococcus aureus [11] = assay: Antimicrobial activity against Staphylococcus aureus ATCC 29213 by measuring turbidity at 540 nm OD after 16 hrs; assay type: functional
Pseudomonas aeruginosa [12] = assay: Antimicrobial activity against Pseudomonas aeruginosa ATCC 27853 assessed as inhibition of visible growth incubated for 24 hrs; assay type: functional
Cell membrane [13] = assay: Induction of cytoplasmic membrane depolarization in Kcl - treated Escherichia coli DC2 assessed as increase in fluorescence intensity for a period of 600 sec by diSC3-5 dye based fluorescence microplate reader assay
Staphylococcus aureus [14] = assay: Antibiofilm activity against methicillin-resistant Staphylococcus aureus ATCC 43300 assessed as dead bacteria at 64 ug/ml incubated for 5 hrs by live/dead staining based confocal laser scanning microscopy; assay type: functional, organism-based; settings: dose 64.0 µg/ml
Escherichia coli [15] = assay: Antimicrobial activity against Escherichia coli ATCC 25922 by measuring turbidity after 16 hrs; assay type: functional
Staphylococcus aureus [16] = assay: Antibiofilm activity against Staphylococcus aureus ATCC 29213 assessed as inhibition of biofilm formation at 64 ug/ml after 48 hrs by crystal violet staining based assay relative to control; assay type: functional; set-up: scale not given: the % may be the effect or the level left; settings: dose 64 µg/ml
Pseudomonas aeruginosa [17] = assay: Antimicrobial activity against Pseudomonas aeruginosa ATCC 27853 by measuring turbidity after 16 hrs; assay type: functional
[18] = Cytotoxicity against mouse L929 cells assessed as cell viability at 8 or 16 ug/ml after 24 hrs by MTT assay relative to control; assay type: cell-based; settings: dose 8-16 µg/ml, read-out: Activity
Cell membrane [19] = assay: Induction of cell membrane damage in Escherichia coli ATCC 25922 assessed as leakage of cellular components at 16 ug/ml after 30 mins by transmission electron microscopy; assay type: subcellular; settings: dose 16.0 µg/ml
Staphylococcus aureus [20] = assay: Bactericidal activity against planktonic phase of Staphylococcus aureus ATCC 29213 assessed as log reduction in bacterial colony forming units at 2 ug/ml incubated for 15 mins followed by plating on agar plate and measured after overnight incubation by time-kill kinetic assay relative to control; assay type: functional; set-up: scale not given: the % may be the effect or the level left; settings: dose 2 µg/ml, 0.25 h
Staphylococcus aureus [21] = assay: Antimicrobial activity against methicillin-resistant Staphylococcus aureus ATCC 43300 assessed as inhibition of visible growth incubated for 24 hrs; assay type: functional
[22] = Cytotoxicity against mouse L929 cells assessed as cell viability at 64 ug/ml after 24 hrs by MTT assay relative to control; assay type: cell-based; settings: at 64 µg/mL, read-out: Activity
Staphylococcus aureus [23] = assay: Antibiofilm activity against 48 hrs pre-formed biofilm of Staphylococcus aureus ATCC 29213 assessed as reduction in biofilm viability at 64 ug/ml after 5 hrs relative to control; assay type: functional; settings: dose 64 µg/ml
[24] = system: Staphylococcus epidermidis; assay: Antimicrobial activity against Staphylococcus epidermidis ATCC 14990 assessed as inhibition of visible growth incubated for 24 hrs; assay type: functional
[25] = Hemolytic activity against Erythrocyte (unknown origin) at 16 ug/ml measured after 4 hrs by microplate reader analysis relative to control; assay type: ADME, cell-based; settings: human, erythrocytes, at 16 µg/mL, read-out: Activity
Staphylococcus aureus [26] = assay: Antibiofilm activity against methicillin resistant Staphylococcus aureus ATCC 43300 assessed as inhibition of biofilm formation at 64 ug/ml after 48 hrs by crystal violet staining based assay relative to control; assay type: functional; set-up: scale not given: the % may be the effect or the level left; settings: dose 64 µg/ml
Cell membrane [27] = assay: Induction of cell membrane damage in methicillin-resistant Staphylococcus aureus ATCC 43300 assessed as leakage of cellular components at 16 ug/ml after 30 mins by transmission electron microscopy; assay type: subcellular; settings: dose 16.0 µg/ml
Escherichia coli [28] = assay: Antimicrobial activity against Escherichia coli ATCC 25922 assessed as inhibition of visible growth incubated for 24 hrs; assay type: functional

Molecule | MIC [2] [µg/mL] | hemolysis at 4 h, 4 ug/ml [3] [%] | MBC (Staphylococcus aureus [4]) [µg/mL] | viability at 24 h, 128 ug/ml [5] [%] | Activity (Staphylococcus aureus [6]) [%] | MIC (Staphylococcus aureus [9]) [µg/mL] | MIC (Staphylococcus aureus [11]) [µg/mL] | MBC (Pseudomonas aeruginosa [12]) [µg/mL] | Activity (Cell membrane [13]) | MIC (Escherichia coli [15]) [µg/mL] | MIC (Pseudomonas aeruginosa [17]) [µg/mL] | viability at 24 h [18] [%] | Activity (Cell membrane [19]) | MBC (Staphylococcus aureus [21]) [µg/mL] | Activity (Staphylococcus aureus [23]) [%] | MBC [24] [µg/mL] | hemolysis at 4 h, 16 ug/ml [25] [%] | Activity (Cell membrane [27]) | MBC (Escherichia coli [28]) [µg/mL] | other results
CC[C@H](C)[C@H](NC(=O)[C@H](CCCNC(=N)N)NC(=O)CCCCC1CCSS1)C(=O)N[C@@H](Cc1c[nH]c2ccccc12)C(=O)N[C@H](C(=O)N[C@H](C(=O)N[C@@H](Cc1c[nH]c2ccccc12)C(=O)N[C@@H](CCCNC(=N)N)C(=O)N[C@@H](CCCNC(=N)N)C(N)=O)[C@@H](C)CC)C(C)C (some centres not stated) ({Lipoyl(6ξ)}-RIWVIWRR-NH2) | 8 (≈ 5.83 µM) | 0.97 | 2 (≈ 1.46 µM) | 80.1 | 36.4 | 4 (≈ 2.92 µM) | 1 (≈ 0.729 µM) | 8 (≈ 5.83 µM) | Dose-dependent effect | 8 (≈ 5.83 µM) | 8 (≈ 5.83 µM) | 100 | Active | 8 (≈ 5.83 µM) | 60 | 8 (≈ 5.83 µM) | 4.58 | Active | 8 (≈ 5.83 µM) | viability at 24 h, 32 ug/ml [1]: 89.4%; Activity (Staphylococcus aureus [7]): Active; Activity (Cell membrane [8]): Active; Activity (Staphylococcus aureus [10]): 99%; Activity (Staphylococcus aureus [14]): Active; Activity (Staphylococcus aureus [16]): 12%; Activity (Staphylococcus aureus [20]): 99%; viability at 24 h, 64 ug/ml [22]: 84.9%; Activity (Staphylococcus aureus [26]): 25.6%
H-RIWVIWRR-NH2 | 4 | 1.21 | 4 | 85.7 | 40.2 | 8 | 2 | 4 | Dose-dependent effect | 4 | 4 | 100 | Active | 16 | 45 | 4 | 3.47 | Active | 4 | –
